Assay results taken from US20110143332A1, “METHOD FOR IDENTIFYING MICROORGANISM OR DETECTING ITS MORPHOLOGY ALTERATION USING SURFACE ENHANCED RAMAN SCATTERING (SERS)” (NATIONAL YANG-MING UNIVERSITY, priority 2007, published 2011).
“Also recorded” adds a separate entry of the source. Bridge positions count the residues as written; N and C are the ends. Square brackets hold non-standard residues; d marks the D form. Peptide text beside a SMILES is read from it. * marks the point of attachment. Ileψ(thiazoline)Cys = CC[C@H](C)[C@H](N)C1=N[C@H](C(=O)*)CS1; dOrn = NCCC[C@@H](N)C(=O)O

Legend:
Assay type in all cases: cell-based
[1] = test system: Escherichia coli JM109(mutant); test: SERS monitoring of antibiotic effect on bacteria mounted on Ag/AAO substrate; conditions: 25 μg/ml bacitracin for 48 min; antibiotic susceptible strain; 0.5% agarose gel; FIG. 6
Method: (§1) Fourteen laboratory strains, Escherichia coli JM109, Escherichia coli JM109(mutant), Enterococcus faecalis 7-18 uE, Enterococcus faecium 13631, Staphylococcus aureus 13649, Staphylococcus aureus 13615, Streptococcus agalactiae 13640, Enterococcus faecalis 13641 C2, Klebsiella pneumoniae 13641 C1, Proteus mirabilis 13621 C1, Enterobacter cloacae 13457 C2, E. coli 13594 C1, E. coli 13650, Escherichia coli JM109(mutant) and E. coli 13634 were analyzed. Bacteria were grown in 5 mL of LB broth (˜6 h) to OD600=˜0.5, washed five times with PBS, and resuspended in 0.1 ml of PBS. About 3˜5 μl of the bacteria suspension is placed on the Ag/AAO substrate. 0.5% agarose gel was used to mount the bacterial samples for inhibiting the movement of bacteria. Five antibiotics: ampicillin, bacitracin, vancomycin, tetracycline and gentamycin were used in the examples. The former three could interfere with construction of the bacterial cell wall. The last two inhibited the protein synthesis in bacteria via disrupting the binding between tRNA and ribosome.
(§2) A Jobin Yvon Raman microscope (model LabRAM HR800) was used to observe the scattering excited by a 632.8 nm He—Ne laser. The spectral data acquisition time was in the 1-10 s range and the SERS spectra were obtained with a 100× microscope objective for excitation/collection. […]

[2] = test system: Enterococcus faecalis 7-18 uE; test: SERS monitoring of antibiotic effect on drug-resistant strain; conditions: 0.5% agarose gel, FIG. 11
Method: as §1, §2

E. coli 13650 = test: SERS monitoring of antibiotic effect on bacteria mounted on Ag/AAO substrate; conditions: 25 μg/ml gentamycin for 37 min; antibiotic susceptible strain; 0.5% agarose gel; FIG. 10
Method: as §1, §2

Escherichia coli JM109 = test: as above; conditions: 10 μg/ml ampicillin for 35 min; antibiotic susceptible strain; 0.5% agarose gel; FIG. 5
Method: as §1, §2

Q: For `CC[C@H](C)[C@H](N)C1=N[C@H](C(=O)N[C@@H](CC(C)C)C(=O)N[C@H](CCC(=O)O)C(=O)N[C@H](C(=O)N[C@H]2CCCCNC(=O)[C@H](CC(N)=O)NC(=O)[C@@H](CC(=O)O)NC(=O)[C@H](Cc3cnc[nH]3)NC(=O)[C@@H](Cc3ccccc3)NC(=O)[C@H]([C@@H](C)CC)NC(=O)[C@@H](CCCN)NC2=O)[C@@H](C)CC)CS1` [bacitracin] ({Ileψ(thiazoline)Cys}-L[dE]IK[dOrn]I[dF]H[dD]N; lactam 4-C), which “new peak in SERS spectrum compared with no treatment” value [1] is on record?
A: 700 cm⁻¹

Q: What about the “change of SERS spectrum (in words)” value ([2]; 25 μg/ml bacitracin for 48 min) of the same compound?
A: No spectral changes were observed; also recorded: no changes in the spectra were observed

Q: With gentamycin as the compound, how does the “new peaks in SERS spectrum” value (E. coli 13650) read?
A: 418 cm⁻¹

Q: Which results are given for `CC1(C)S[C@@H]2[C@H](NC(=O)[C@H](N)c3ccccc3)C(=O)N2[C@H]1C(=O)O` [ampicillin]?
A: new peak in SERS spectrum compared with no treatment (Escherichia coli JM109): 700 cm⁻¹; change of SERS spectrum (in words) ([2]; 10 μg/ml ampicillin for 35 min): No spectral changes were observed; also recorded: no changes in the spectra were observed
